In patent publication US6806229B1, “Herbicidally active pyridine sulfonyl urea derivatives” (LG Life Sciences, priority 2003, dated 2004):
Where two headings read alike, the source gives them in different places.

Experiments:
Type in all cases: in vivo
Oryza sativa = experiment: Phytotoxicity to rice (direct-seeded and transplanted) in paddy condition, greenhouse pot test; settings: visual rating after two weeks; for Phytotoxicity, Oryza sativa, Seed: direct-seeded rice, treated 5 days after sowing; for Phytotoxicity, Oryza sativa, Transplanted: transplanted rice seedlings, treated 5 days after transplanting
From the text: (§1) Pots having a surface area of 150 cm^2 were filled with a small amount of fertilizer and sterilized paddy field soil in a muddy state with a depth of 5 cm. Five (5) seeds of pre-germinated rice were directly sown on the soil surface and three (3) rice seedlings (2˜3 leaves) prepared in advance were transplanted in a depth of 2 cm in each pot. In another pot, seeds of barnyardgrass were sown and incorporated into the surface layer of soil. After sowing and transplanting of rice plant and sowing of barnyardgrass, the pots were flooded with water 3 cm deep and kept in a greenhouse. The rice plant was treated with the chemicals 5 days after sowing or transplanting, and barnyardgrass was treated with the chemicals at the pre-emergence (5 days after from sowing) and post-emergence stage (at the three-leaf stage, usually after 15 days from sowing).
(§2) Suitable herbicidal compositions were prepared by mixing and dissolving 1 part by weight of the active compound with 5 parts by weight of acetone and 1 part by weight of alkylaryl polyglycolether as an emulsifier and then diluting with water to the predetermined concentration. Application was made by dropping the herbicide solutions onto the water surface of the pots.

[1] = system: Scirpus jumcoides (SCPJU); experiment: Weed spectrum in paddy field, SCPJU; settings: 20 g/ha; applied 5 days after sowing; observed two weeks
Method: as §2
(§3) Pots having a surface area of 500 cm^2 were filled with the soil in a muddy state as mentioned above. Seeds of annual weeds such as Monochoria vaginaiis (MOOVA), Lindernia procumbens (LIDPR), Rotala indica (ROTIN), Scirpus jumcoides (SCPJU), etc. were sown on the surface layer of soil, and then were planted tubers of perennial weeds such as Cyperus serotinus (CYPSE) and Sagittaria pygmaea (SAGPY) in a depth of 1 cm, and Eleocharis kuroguwai (ELOKU) and Sagittaria trifolia (SAGTR) in a depth of 4 cm. After 5 days, the chemicals were formulated as mentioned above and applied by dropping to the water surface of the pots.

[2] = system: Cyperus serotinus (CYPSE); experiment: Weed spectrum in paddy field, CYPSE; settings: 20 g/ha; tubers planted 1 cm deep; applied after 5 days; observed two weeks
Method: as §2, §3

[3] = system: Monochoria vaginaiis (MOOVA); experiment: Weed spectrum in paddy field, MOOVA; settings: 20 g/ha; applied 5 days after sowing; observed two weeks
Method: as §2, §3

Rotala indica (ROTIN) = experiment: Weed spectrum in paddy field, ROTIN; settings: 20 g/ha; applied 5 days after sowing; observed two weeks
Method: as §2, §3

[4] = system: Eleocharis kuroguwai (ELOKU); experiment: Weed spectrum in paddy field, ELOKU; settings: 20 g/ha; tubers planted 4 cm deep; applied after 5 days; observed two weeks
Method: as §2, §3

[5] = system: Sagittaria trifolia (SAGTR); experiment: Weed spectrum in paddy field, SAGTR; settings: 20 g/ha; tubers planted 4 cm deep; applied after 5 days; observed two weeks
Method: as §2, §3

[6] = system: Sagittaria pygmaea (SAGPY); experiment: Weed spectrum in paddy field, SAGPY; settings: 20 g/ha; tubers planted 1 cm deep; applied after 5 days; observed two weeks
Method: as §2, §3

Echinochloa crus-galli = experiment: Herbicidal activity to barnyardgrass in paddy condition, pre- and post-emergence, greenhouse pot test; settings: Echinochloa crus-galli, 336 h, visual rating after two weeks
From the text: as §1, §2

[7] = system: Lindernia procumbens (LIDPR); experiment: Weed spectrum in paddy field, LIDPR; settings: 20 g/ha; applied 5 days after sowing; observed two weeks
Method: as §2, §3

[8] = 80 g/ha, 0 = none, 100 = complete death
[9] = post-emergence, three-leaf stage, read-out: Herbicidal activity, Echinochloa crus-galli, Post-emergence (3-Leaf stage)
[10] = pre-emergence (5 days after sowing), read-out: Herbicidal activity, Echinochloa crus-galli, Pre-emergence
[11] = pre-emergence (5 days after sowing), 0 = no activity, 100 = complete death, read-out: Herbicidal activity, Echinochloa crus-galli, Pre-emergence

COCCC(=O)O[C@H](c1ncccc1S(=O)(=O)NC(=O)Nc1nc(OC)cc(OC)n1)[C@H](C)F [Com. 4]
Phytotoxicity, Oryza sativa, Seed (Oryza sativa; 10 g/ha): 0% | Phytotoxicity, Oryza sativa, Transplanted (Oryza sativa; 10 g/ha): 0% | Phytotoxicity, Oryza sativa, Seed (Oryza sativa; 20 g/ha): 0% | Phytotoxicity, Oryza sativa, Transplanted (Oryza sativa; 20 g/ha): 0% | Phytotoxicity, Oryza sativa, Seed (Oryza sativa; 40 g/ha): 20% | Phytotoxicity, Oryza sativa, Transplanted (Oryza sativa; 40 g/ha): 10% | Phytotoxicity, Oryza sativa, Seed (Oryza sativa; [8]): 30% | Phytotoxicity, Oryza sativa, Transplanted (Oryza sativa; 80 g/ha): 20% | Weed spectrum, Annual weeds, SCPjU [1]: 100 | Weed spectrum, Perennial weeds, CYPSE [2]: 100 | Weed spectrum, Annual weeds, MOOVA [3]: 100 | Weed spectrum, Annual weeds, ROTIN (Rotala indica (ROTIN)): 100 | Weed spectrum, Perennial weeds, ELOKU [4]: 95 | Weed spectrum, Perennial weeds, SAGTR [5]: 85 | Weed spectrum, Perennial weeds, SAGPY [6]: 90 | pest or weed control at 5 g/ha (Echinochloa crus-galli; [9]): 60% | pest or weed control at 5 g/ha (Echinochloa crus-galli; [10]): 60% | pest or weed control at 10 g/ha (Echinochloa crus-galli; [9]): 90% | pest or weed control at 10 g/ha (Echinochloa crus-galli; [10]): 95% | pest or weed control at 20 g/ha (Echinochloa crus-galli; [9]): 100% | pest or weed control at 20 g/ha (Echinochloa crus-galli; [10]): 100% | pest or weed control at 30 g/ha (Echinochloa crus-galli; [9]): 100% | pest or weed control at 30 g/ha (Echinochloa crus-galli; [11]): 100% | Weed spectrum, Annual weeds, LIDPR [7]: 100

COCC(=O)O[C@H](c1ncccc1S(=O)(=O)NC(=O)Nc1nc(OC)cc(OC)n1)[C@H](C)F [Com. 2]
Phytotoxicity, Oryza sativa, Seed (Oryza sativa; 10 g/ha): 0% | Phytotoxicity, Oryza sativa, Transplanted (Oryza sativa; 10 g/ha): 0% | Phytotoxicity, Oryza sativa, Seed (Oryza sativa; 20 g/ha): 0% | Phytotoxicity, Oryza sativa, Transplanted (Oryza sativa; 20 g/ha): 0% | Phytotoxicity, Oryza sativa, Seed (Oryza sativa; 40 g/ha): 20% | Phytotoxicity, Oryza sativa, Transplanted (Oryza sativa; 40 g/ha): 10% | Phytotoxicity, Oryza sativa, Seed (Oryza sativa; [8]): 30% | Phytotoxicity, Oryza sativa, Transplanted (Oryza sativa; 80 g/ha): 10% | Weed spectrum, Annual weeds, SCPjU [1]: 100 | Weed spectrum, Perennial weeds, CYPSE [2]: 100 | Weed spectrum, Annual weeds, MOOVA [3]: 100 | Weed spectrum, Annual weeds, ROTIN (Rotala indica (ROTIN)): 100 | Weed spectrum, Perennial weeds, ELOKU [4]: 95 | Weed spectrum, Perennial weeds, SAGTR [5]: 90 | Weed spectrum, Perennial weeds, SAGPY [6]: 95 | pest or weed control at 5 g/ha (Echinochloa crus-galli; [9]): 50% | pest or weed control at 5 g/ha (Echinochloa crus-galli; [10]): 60% | pest or weed control at 10 g/ha (Echinochloa crus-galli; [9]): 90% | pest or weed control at 10 g/ha (Echinochloa crus-galli; [10]): 100% | pest or weed control at 20 g/ha (Echinochloa crus-galli; [9]): 100% | pest or weed control at 20 g/ha (Echinochloa crus-galli; [10]): 100% | pest or weed control at 30 g/ha (Echinochloa crus-galli; [9]): 100% | pest or weed control at 30 g/ha (Echinochloa crus-galli; [11]): 100% | Weed spectrum, Annual weeds, LIDPR [7]: 100

COCC(=O)O[C@H](c1nccc(Cl)c1S(=O)(=O)NC(=O)Nc1nc(OC)cc(OC)n1)[C@H](C)F [Com. 5]
Phytotoxicity, Oryza sativa, Seed (Oryza sativa; 10 g/ha): 0% | Phytotoxicity, Oryza sativa, Transplanted (Oryza sativa; 10 g/ha): 0% | Phytotoxicity, Oryza sativa, Seed (Oryza sativa; 20 g/ha): 10% | Phytotoxicity, Oryza sativa, Transplanted (Oryza sativa; 20 g/ha): 0% | Phytotoxicity, Oryza sativa, Seed (Oryza sativa; 40 g/ha): 20% | Phytotoxicity, Oryza sativa, Transplanted (Oryza sativa; 40 g/ha): 0% | Phytotoxicity, Oryza sativa, Seed (Oryza sativa; [8]): 30% | Phytotoxicity, Oryza sativa, Transplanted (Oryza sativa; 80 g/ha): 20% | pest or weed control at 5 g/ha (Echinochloa crus-galli; [9]): 60% | pest or weed control at 5 g/ha (Echinochloa crus-galli; [10]): 50% | pest or weed control at 10 g/ha (Echinochloa crus-galli; [9]): 70% | pest or weed control at 10 g/ha (Echinochloa crus-galli; [10]): 80% | pest or weed control at 20 g/ha (Echinochloa crus-galli; [9]): 90% | pest or weed control at 20 g/ha (Echinochloa crus-galli; [10]): 90% | pest or weed control at 30 g/ha (Echinochloa crus-galli; [9]): 100% | pest or weed control at 30 g/ha (Echinochloa crus-galli; [11]): 100%

COCC(=O)O[C@H](c1nccc(C)c1S(=O)(=O)NC(=O)Nc1nc(OC)cc(OC)n1)[C@H](C)F [Com. 7]
Phytotoxicity, Oryza sativa, Seed (Oryza sativa; 10 g/ha): 0% | Phytotoxicity, Oryza sativa, Transplanted (Oryza sativa; 10 g/ha): 0% | Phytotoxicity, Oryza sativa, Seed (Oryza sativa; 20 g/ha): 0% | Phytotoxicity, Oryza sativa, Transplanted (Oryza sativa; 20 g/ha): 0% | Phytotoxicity, Oryza sativa, Seed (Oryza sativa; 40 g/ha): 20% | Phytotoxicity, Oryza sativa, Transplanted (Oryza sativa; 40 g/ha): 10% | Phytotoxicity, Oryza sativa, Seed (Oryza sativa; [8]): 30% | Phytotoxicity, Oryza sativa, Transplanted (Oryza sativa; 80 g/ha): 20% | pest or weed control at 5 g/ha (Echinochloa crus-galli; [9]): 50% | pest or weed control at 5 g/ha (Echinochloa crus-galli; [10]): 60% | pest or weed control at 10 g/ha (Echinochloa crus-galli; [9]): 80% | pest or weed control at 10 g/ha (Echinochloa crus-galli; [10]): 80% | pest or weed control at 20 g/ha (Echinochloa crus-galli; [9]): 95% | pest or weed control at 20 g/ha (Echinochloa crus-galli; [10]): 90% | pest or weed control at 30 g/ha (Echinochloa crus-galli; [9]): 100% | pest or weed control at 30 g/ha (Echinochloa crus-galli; [11]): 100%
